Laboratory results as given in patent publication US7560609B2, “Diabetic model” (priority 2001, dated 2009).

Assay: Insulin sensitivity test
Assay type: in vivo, bank voles
Conditions: 60 minutes following insulin
Procedure: In the Group A bank voles (n=101), four female animals were found positive for glucosuria and blood glucose values of 215, 302, 313 and 340 mg/dl, respectively, In the remaining bank voles, the mean blood glucose±S.D. was normally distributed at 101±28 mg/dl. The body weight of the trapped voles from group A ranged from 8.5-28.4 g, the mean value±S.D. was 19±5 g. Occasional hyperglycemic and glucosuric bank voles may therefore be trapped in the wild. Whether these four animals had stress-induced hyperglycemia or overt diabetes remains to be established. […] As many as 18/22 (82%) had ketones and were polydipsic. […] We therefore next examined the pancreas histology in non-diabetic and diabetic bank voles to test if the classification of type 1 diabetes was supported by a loss of beta cells.

Actrapid: insulin (Actrapid, Novo Nordisk, Copenhagen, Denmark) used in the insulin sensitivity test
decrease in blood glucose (eight animals with blood glucose <120 mg/dl): 40% | decrease in blood glucose (four animals with blood glucose at 120-200 mg/dl): 60% | decrease in blood glucose (four animals with blood glucose levels above 200 mg/dl): 30%
